Assay results reported in PubChem BioAssay (NCI).
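The compound was tested at five concentrations on cells cultured in 96-well plates, with a 48-hour exposure period. TGI marks complete inhibition of growth.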

How the values were obtained:
Assay in all cases: NCI tumour cell line growth inhibition, 48 h
[1] = system: A498 renal
[2] = system: A549 NSCLC
[3] = system: CAKI-1 renal
[4] = system: CCRF-CEM leukemia
[5] = system: DU-145 prostate
[6] = system: HOP-92 NSCLC
[7] = system: HT29 colon
[8] = system: IGROV1 ovarian
[9] = system: KM12 colon
[10] = system: LOX IMVI melanoma
[11] = system: OVCAR-5 ovarian
[12] = system: SF-295 CNS
[13] = system: SF-539 CNS
[14] = system: SK-MEL-28 melanoma
[15] = system: SNB-75 CNS
[16] = system: SR leukemia
[17] = system: T-47D breast
[18] = system: K-562 leukemia

Structure (SMILES)	TGI [1] [µM]	TGI [2] [µM]	TGI [3] [µM]	TGI [4] [µM]	TGI [5] [µM]	TGI [6] [µM]	TGI [7] [µM]	TGI [8] [µM]	TGI [9] [µM]	TGI [10] [µM]	TGI [11] [µM]	TGI [12] [µM]	TGI [13] [µM]	TGI [14] [µM]	TGI [15] [µM]	TGI [16] [µM]	TGI [17] [µM]	TGI [18] [µM]
O=C(CCCN1CCC2(CC1)C(=O)NC(=O)N2c1ccccc1)c1ccc(F)cc1	> 100	> 100	> 100	> 100	> 100	> 100	> 100	> 100	> 100	> 100	> 100	> 100	> 100	> 100	> 100	> 100	> 100	
COc1ccc(NC(=O)CC(=O)n2nc(C)c(N=Nc3ccc(C)c(C)c3)c2C)cc1	> 100	> 100	> 100	> 100	> 100	65.9	> 100	> 100	> 100	> 100	> 100	> 100	> 100	> 100	87	> 100	> 100	
N=C(/C=C/c1ccc(-c2cn3cc(/C=C/C(=N)N4CCCC4)ccc3n2)cc1)N1CCCC1	> 100	> 100	> 100		> 100	> 100		> 100	> 100		> 100	> 100	> 100	> 100	> 100	> 100	> 100	> 100
O=C1/C(=C\c2ccc([N+](=O)[O-])cc2)Sc2scc(-c3ccc(O)c(O)c3)[n+]21		55.4	9.72	16.3	37.2	31.8	15.7	19.7	27.6	> 100	35.4	31.8	22.5	25	25.9	27.9	54.6	> 100
NS(=O)(=O)c1ccc(NC(=O)c2cc([N+](=O)[O-])cc([N+](=O)[O-])c2)cc1	> 100	> 100	> 100	> 100	> 100	91.3	> 100	79.9	> 100	78.1			> 100	> 100	> 100	> 100	85.8	> 100
N#Cc1ncn(-c2ccccc2)c1N	> 100	> 100	> 100	> 100	> 100		> 100	> 100	> 100	> 100	> 100	> 100	> 100	> 100	> 100	> 100	> 100	> 100
O=C(O)C(Cc1ccc2c(c1)CCC2)(Cc1ccc2c(c1)CCC2)C(=O)O	> 100	> 100		> 100	> 100		> 100	> 100	> 100	> 100	> 100	> 100	> 100	> 100	> 100	> 100	> 100	> 100
O=C(O)CCC(NC(=O)c1ccc(Nc2nc3ccccc3nc2C(=O)O)cc1)C(=O)O (configuration not stated)		> 100	> 100	> 100	> 100	> 100	> 100	> 100	> 100		> 100	> 100	> 100	> 100	> 100	> 100	> 100	> 100
CCOC(=O)C1(Cc2ccccc2)Cc2cc3c(cc2C1)CCC3	> 100	> 100	> 100	36.6	> 100		46.2	> 100	> 100	43.9	66.3	85.8	> 100	> 100		65.1	> 100	> 100
CSC(SC)=C1C(=O)NN=C1C		> 100	> 100	> 100	> 100	> 100	> 100	> 100	> 100	> 100	> 100	> 100	> 100	> 100		> 100	> 100	> 100
Cc1cn(CC2=NCCN2)c(=O)[nH]c1=O	> 100	> 100	> 100	> 100	> 100	> 100	> 100	> 100	> 100	> 100	> 100	> 100		> 100	> 100	> 100	> 100	> 100
O=c1[nH]c2cc(C(F)(F)F)ccc2nc1Cc1ccccc1	> 100		> 100	> 100	> 100	> 100	> 100	> 100	> 100	> 100		> 100	> 100	> 100	> 100	> 100	> 100	> 100
CSc1c(C(=O)Nc2ccc(C)cc2)c(N)nn1-c1ccccc1	75.1	> 100	49.9	> 100	> 100	88.1	> 100	> 100		> 100	> 100	> 100	92.1	> 100		> 100	> 100	> 100
COCCOCN(C(=O)C1=CCC2(CC1)OCCO2)c1ccccc1I	> 50	> 50	> 50	> 50	> 50	> 50	> 50		> 50	> 50	> 50	> 50		> 50	> 50	> 50	> 50	
Cc1ccc(S(=O)(=O)N2CCCSCCSCCCSCC2)cc1		> 100		> 100	> 100	> 100	> 100	> 100	> 100	> 100	> 100	> 100	> 100	> 100	> 100	> 100	> 100	> 100
Cc1ccc(/C=C2\N=C(N3CCCCC3)NC2=O)cc1		> 100	> 100	> 100	> 100	> 100	> 100		> 100	> 100	> 100	> 100	> 100	> 100		> 100	> 100	
CC(CC(=O)CO[C@H]1[C@H](O)[C@@H](O)[C@@H](O)[C@@H]2NC(=O)c3c(cc4c(c3O)OCO4)[C@H]21)OC1OC(CO)C(O)C(O)C1O (some centres not stated)	4.39	9.23	> 100	0.582	0.664	4.57	2.32	6.82	1.77	1.32	5.7	5.65	1.86	14.3	0.884	2.22	0.894	
CN(C)CCOc1ccc(I)cc1Cc1ccccc1	27.1	30.5		18.5	31.6		17	17.4	27	19.2	29.7	30.1	27.8	16.6	6.79	7.81	16.2	11.2
O=[N+]([O-])c1ccc(Cl)cc1-n1nc(-c2ccccc2)cc1-c1ccccc1	> 100	> 100	> 100	> 100	> 100	> 100	> 100	> 100	> 100		> 100	> 100	> 100	> 100	> 100	> 100	> 100	> 100
COc1cc(N(CCC#N)CCC#N)ccc1/C(N=Nc1ccc(C)cc1)=N/NC(=O)c1cc(Br)ccc1O		> 100	66.6	25.2	94.7	65.6	> 100	21.9	44.9	59	> 100	> 100	> 100	85.2	75	76.3	47.3	> 100
CCOc1ccc2ccccc2c1NC1=NCCO1	93.8	> 100		> 100	> 100	42.2	> 100	> 100	76.7		> 100	65.5	> 100	> 100	> 100	> 100	> 100	61.3
Oc1c(C2=NNC(c3cccs3)C2)ccc2ccccc12 (configuration not stated)	56.5	> 100	> 100	37.4	61.7	81.5	40	95.9	36.2		> 100	57.6	43.1	> 100	> 100	29.3	> 100	44
COc1ccc2c(c1)c1nn(CCN(C)C)c3ccc4c(=O)n(CCN(C)C)c(=O)n2c4c13	0.526	0.0759	0.601	0.107	0.603			1.65	0.481	0.469	0.44	0.224	1.77	0.854	0.0778	0.0522	> 25.8	0.448
CSCCC(NCc1c(O)ccc2ccc(=O)oc12)C(=O)O (configuration not stated)		> 100	> 100	> 100	> 100	> 100	> 100	> 100	> 100	> 100	> 100	> 100	> 100	> 100	> 100	> 100	> 100	> 100
Cc1ccc(S(=O)(=O)NC(=O)NC(CO)C(=O)O)cc1 (configuration not stated)		> 100		> 100	> 100	> 100	> 100	> 100	> 100	> 100	> 100	> 100	> 100	> 100	> 100	> 100	> 100	> 100
COC(=O)C1Cc2ccc(C)cc2C1=O (configuration not stated)	> 100	> 100	> 100	> 100	> 100		> 100	> 100	> 100	> 100	> 100	> 100	> 100	> 100	> 100	> 100	> 100	> 100
COc1ncnc2c1cnn2Cc1cn(COCC(O)CO)nn1 (configuration not stated)	> 100	> 100	> 100	> 100	> 100	> 100	> 100	> 100	> 100	> 100	> 100	> 100	> 100	> 100		> 100	> 100	> 100
O=C1C(C(O)(C(F)(F)Cl)C(F)(F)Cl)CCC1C(O)(C(F)(F)Cl)C(F)(F)Cl (configuration not stated)	> 10	> 10	9.69		> 10	5.39	> 10	> 10	> 10	> 10	> 10	5.99	8.56	> 10	> 10	> 10	> 10	> 10
